The record followed here is PubChem BioAssay AID1259408 (Genetic Toxicology Data Bank (GENE-TOX), 2018).

The series deals with GENE-TOX genotoxicity assays, various organisms and cells. Nature of the series: GENE-TOX mutagenicity studies. Conditions: for call: Assay Type: In vivo carcinogenicity studies.
[1] abbreviates: Species/Cell Type: Nonhuman, Assay Code: CCG-, Evaluation Type: Evaluation A (Pre-1980).
The mark [2] stands for this setting: Species/Cell Type: Human, Assay Type: Sister-chromatid exchange (SCE) in vitro, Assay Code: SC1+D, Dose Response: With dose response, Evaluation Type: Evaluation B (Post-1980).
[3] abbreviates: Species/Cell Type: Escherichia coli polA (W3119 vs P3478), Assay Type: Rec-assay, DNA effects (bacterial DNA repair), Assay Code: RE1T, Evaluation Type: Evaluation A (Pre-1980).
Setting [4] is: Species/Cell Type: Salmonella typhimurium (one or more of the five standard strains: TA98, TA100, TA1535, TA1537, and TA1538), Assay Type: Histidine reverse gene mutation, Ames assay, Assay Code: SAL+, Evaluation Type: Evaluation A (Pre-1980).
Where [5] appears, read: Species/Cell Type: Bacillus subtilis (H17 vs M45), Assay Type: Rec-assay, spot test, DNA effects (bacterial DNA repair), Assay Code: REWT, Evaluation Type: Evaluation A (Pre-1980).
[6] abbreviates: Species/Cell Type: Chinese hamster lung (V79) cells, Assay Type: Forward gene mutation at the HPRT or ouabain locus, Assay Code: V79-, Evaluation Type: Evaluation A (Pre-1980).
Where [7] appears, read: Species/Cell Type: Mouse, Sex: Male, Assay Type: Sperm morphology, Assay Code: SPIT, Evaluation Type: Evaluation A (Pre-1980).
Where [8] appears, read: Species/Cell Type: Salmonella typhimurium (one or more of the five standard strains: TA98, TA100, TA1535, TA1537, and TA1538), Assay Type: Histidine reverse gene mutation, Ames assay, Assay Code: SALT, Evaluation Type: Evaluation A (Pre-1980).
Setting [9] is: Species/Cell Type: Mammalian polychromatic erythrocytes, Assay Type: Micronucleus test, chromosome aberrations, Assay Code: MNTT, Evaluation Type: Evaluation B (Post-1980).
Setting [10] is: Species/Cell Type: Salmonella typhimurium (one or more of the five standard strains: TA98, TA100, TA1535, TA1537, and TA1538), Assay Type: Histidine reverse gene mutation, Ames assay, Assay Code: SAL+*, Activation: With metabolic activation, Evaluation Type: Evaluation A (Pre-1980).
Setting [11] is: Species/Cell Type: Allium cepa, Assay Type: Chromosome aberrations, Assay Code: ALC+D, Dose Response: With dose response, Evaluation Type: Evaluation A (Pre-1980).
The mark [12] stands for this setting: Species/Cell Type: Bacillus subtilis (H17 vs M45), Assay Type: Rec-assay, spot test, DNA effects (bacterial DNA repair), Assay Code: REW+, Evaluation Type: Evaluation A (Pre-1980).
Setting [13] is: Species/Cell Type: Drosophila melanogaster, Assay Type: Sex-linked recessive lethal gene mutation, Assay Code: SRL-, Evaluation Type: Evaluation A (Pre-1980).

Molecules are shown by their SMILES. Activity calls are given as the source filed them. No rule for the calls is given here.

For `CC(=O)C(N=Nc1ccc(-c2ccc(N=NC(C(C)=O)C(=O)Nc3ccccc3)c(Cl)c2)cc1Cl)C(=O)Nc1ccccc1` (stereo not given), under setting [1], the call is “inactive; negative”.
As for `COC(=O)/C=C(\C)OP(=O)(OC)OC`, the mutagenic call by setting is: under setting [2], “active; positive”; (Species/Cell Type: Tradescantia species, Assay Type: Chromosome aberrations, Assay Code: TRC+, Evaluation Type: Evaluation A (Pre-1980)) “active; positive”; (Species/Cell Type: Vicia faba, Assay Type: Chromosome aberrations, Assay Code: VIC+, Evaluation Type: Evaluation A (Pre-1980)) “active; positive”.
On to `CC(O)c1ccccc1` (stereo not given), for which the mutagenic call under setting [3] is given as “no conclusion”.
For the compound `O=[N+]([O-])c1ccc(C=NCCO)o1`, under setting [4], the mutagenic call was “active; positive”.
In the case of `Cc1c(N)cccc1N`, under setting [1], the call is “inactive; negative”.
`O=S(=O)(O)c1cc(S(=O)(=O)O)c2c(N=Nc3ccccc3)c(O)ccc2c1`: the mutagenic call under setting [5] is “no conclusion”.
`FC(F)OC(F)(F)C(F)Cl` (stereo not given): the mutagenic call runs as follows: under setting [6], “inactive; negative”; (Species/Cell Type: Human lymphocytes, Assay Type: Sister-chromatid exchange (SCE) in vivo, Assay Code: SCY+, Evaluation Type: Evaluation B (Post-1980)) “active; positive”; under setting [7], “no conclusion”; (Species/Cell Type: Nonhuman, Assay Type: Sister-chromatid exchange (SCE) in vitro, Assay Code: SC2T, Evaluation Type: Evaluation B (Post-1980)) “no conclusion”; under setting [8], “no conclusion”.
`Cc1ccc(N2CC[N+](C)([O-])CC2)c2c(=O)c3ccc(Cl)cc3sc12`: under setting [8], the mutagenic call was “no conclusion”.
For `C1CCNCC1`, the mutagenic call (Species/Cell Type: Salmonella typhimurium, Assay Type: Forward and reverse gene mutation, host-mediated assay, Assay Code: HMA-, Evaluation Type: Evaluation A (Pre-1980)) was “inactive; negative”.
Turning to `O=c1[nH]c(=O)n([C@H]2C[C@H](O)[C@@H](CO)O2)cc1/C=C/Cl`, under setting [2], the mutagenic call was “active; positive”.
As to `Nc1ccc(Oc2ccc(N)c(Cl)c2)cc1Cl`, the call (Species/Cell Type: Nonhuman, Assay Code: CCG+, Evaluation Type: Evaluation A (Pre-1980)) was “active; positive”.
Regarding `CCN(CC)C(=S)SSC(=S)N(CC)CC`, under setting [9], the mutagenic call was “no conclusion”. The call under setting [1] is “inactive; negative”.
Regarding `O=C(O)c1ccc2c([N+](=O)[O-])cccc2n1`, the mutagenic call under setting [4] is “active; positive”.
Turning to `Cc1ccc2cc3c(cc(-c4ccccc4O)c4ccccc43)c3c2c1CC3`, under setting [6], the mutagenic call was “inactive; negative”.
Take `Cc1c2ccncc2c(C)c2c1[nH]c1ccc(O)cc12`: the mutagenic call (Species/Cell Type: Chinese hamster ovary (CHO) cells, Assay Type: Forward gene mutation at the HPRT locus, Assay Code: CHOT, Evaluation Type: Evaluation B (Post-1980)) is reported as “no conclusion”.
Consider `CC1=CCCc2c1cc(C)c1c2ccc2ccccc21`, for which the mutagenic call under setting [10] was “active; positive”.
For the compound `Cc1cccc2cccnc12`, the mutagenic call under setting [10] is “active; positive”.
Consider `CS(=O)(=O)OC[C@H](O)[C@@H]1CO1`, for which the mutagenic call under setting [11] is “active; positive”.
As to `COP(=O)(OC)OC=C(Cl)Cl`, the mutagenic call reads like this: under setting [11], “active; positive”; under setting [12], “active; positive”; under setting [13], “inactive; negative”; (Species/Cell Type: Escherichia coli WP2, Assay Type: Tryptophan reverse gene mutation, Assay Code: WP2+, Evaluation Type: Evaluation A (Pre-1980)) “active; positive”; (Species/Cell Type: Escherichia coli WP2 UVRA, Assay Type: Tryptophan reverse gene mutation, Assay Code: WPU+, Evaluation Type: Evaluation A (Pre-1980)) “active; positive”; (Species/Cell Type: Escherichia coli polA (W3119 vs P3478), Assay Type: Rec-assay, DNA effects (bacterial DNA repair), Assay Code: RE1+, Evaluation Type: Evaluation A (Pre-1980)) “active; positive”. The mutagenic call is “inactive; negative” (Species/Cell Type: Human lymphocytes, Assay Type: Sister-chromatid exchange (SCE) in vitro, Assay Code: SCL-, Evaluation Type: Evaluation A (Pre-1980)); “no conclusion” (Species/Cell Type: Human lymphocytes, Assay Type: Sister-chromatid exchange (SCE) in vitro, Assay Code: SCLT, Evaluation Type: Evaluation B (Post-1980)); “inactive; negative” (Species/Cell Type: Human, Assay Type: Sister-chromatid exchange (SCE) in vitro, Assay Code: SC1-, Evaluation Type: Evaluation A (Pre-1980)); “no conclusion” (Species/Cell Type: Human, Assay Type: Sister-chromatid exchange (SCE) in vitro, Assay Code: SC1T, Evaluation Type: Evaluation B (Post-1980)); “inactive; negative” (Species/Cell Type: Mammalian germ cells, Sex: Male, Assay Type: Chromosome aberrations in vivo, Assay Code: CY9-, Evaluation Type: Evaluation A (Pre-1980)); “no conclusion” under setting [9]. For the same compound, the mutagenic call under setting [7] is “no conclusion”; the mutagenic call (Species/Cell Type: Nonhuman bone marrow, Assay Type: Chromosome aberrations, in vivo, Assay Code: CY#-, Evaluation Type: Evaluation A (Pre-1980)) is “inactive; negative”; the mutagenic call (Species/Cell Type: Nonhuman, Assay Type: Sister-chromatid exchange (SCE) in vitro, Assay Code: SC2+D, Dose Response: With dose response, Evaluation Type: Evaluation B (Post-1980)) is “active; positive”; the mutagenic call (Species/Cell Type: Nonhuman, Assay Type: Sister-chromatid exchange (SCE) in vivo, Assay Code: SC3-, Evaluation Type: Evaluation B (Post-1980)) is “inactive; negative”; the mutagenic call (Species/Cell Type: Rodents, Sex: Male, Assay Type: Dominant lethal test, Assay Code: DLTT, Evaluation Type: Evaluation A (Pre-1980)) is listed as “no conclusion”; the mutagenic call (Species/Cell Type: Saccharomyces cerevisiae, Assay Type: Mitotic recombination or gene conversion, Assay Code: YEC+, Evaluation Type: Evaluation A (Pre-1980)) is “active; positive”. Further, the mutagenic call is, setting by setting: under setting [4], “active; positive”; (Species/Cell Type: Salmonella typhimurium, Serratia marcesens, Saccharomyces cerevisiae, Assay Type: Forward and reverse gene mutation, mitotic recombination and gene conversion, DNA effects, host-mediated assay, Assay Code: HM5-, Evaluation Type: Evaluation A (Pre-1980)) “inactive; negative”. The call (Species/Cell Type: Nonhuman, Assay Code: CCGT, Evaluation Type: Evaluation A (Pre-1980)) is “no conclusion”.
In the case of `COP(=O)(OC)C(O)C(Cl)(Cl)Cl` (stereo not given), the mutagenic call is “no conclusion” under setting [5]; “inactive; negative” under setting [13]; “active; positive” (Species/Cell Type: Escherichia coli WP2 UVRA, Assay Type: Tryptophan reverse gene mutation, Assay Code: WPU+D, Dose Response: With dose response, Evaluation Type: Evaluation A (Pre-1980)); “no conclusion” under setting [3]; “inactive; positive without activation, negative with activation” (Species/Cell Type: Human diploid fibroblasts, Assay Type: Unscheduled DNA synthesis (UDS) in vitro, DNA effects, Assay Code: UDH+/-*, Activation: With metabolic activation, Evaluation Type: Evaluation A (Pre-1980)); “no conclusion” (Species/Cell Type: Mammalian polychromatic erythrocytes, Assay Type: Micronucleus test, chromosome aberrations, Assay Code: MNTT, Evaluation Type: Evaluation A (Pre-1980)). In addition, the mutagenic call is, setting by setting: (Species/Cell Type: Nonhuman, Assay Type: Sister-chromatid exchange (SCE) in vitro, Assay Code: SC2+D*, Activation: With metabolic activation, Dose Response: With dose response, Evaluation Type: Evaluation B (Post-1980)) “active; positive”; (Species/Cell Type: Saccharomyces cerevisiae, Assay Type: Mitotic recombination or gene conversion, Assay Code: YEH+, Evaluation Type: Evaluation A (Pre-1980)) “active; positive”; under setting [4], “active; positive”; (Species/Cell Type: Salmonella typhimurium, Assay Type: Forward and reverse gene mutation, body fluid assay, Assay Code: BFU+, Evaluation Type: Evaluation A (Pre-1980)) “active; positive”.
As for `S=C1SSC2=NCCN12`, the mutagenic call is “active; positive” under setting [12]; “active; positive” (Species/Cell Type: Human lymphocytes, Assay Type: Sister-chromatid exchange (SCE) in vitro, Assay Code: SCL+, Evaluation Type: Evaluation B (Post-1980)); “active; positive” (Species/Cell Type: Human, Assay Type: Sister-chromatid exchange (SCE) in vitro, Assay Code: SC1+, Evaluation Type: Evaluation B (Post-1980)).
With `CCCCOCCOCCOCc1cc2c(cc1CCC)OCO2`, the call (Species/Cell Type: Nonhuman, Assay Code: CCG-L, Evaluation Type: Evaluation A (Pre-1980)) was “inactive; negative”.
